From patent publication US20130261045A1, “GREEN TEA POLYPHENOL ALPHA SECRETASE ENHANCERS AND METHODS OF USE” (UNIVERSITY OF SOUTH FLORIDA, priority 2005, published 2013)

Legend:
APP cleavage processing = assay: Western blot/immunoprecipitation of APP cleavage (CTFs, sAPP-α, holo APP) in APP-transfected N2a cells; type: cell-based, murine
Protocol: Cell cultured supernatants were collected and cell lysates were prepared from these cultured cells.
Cultured cells and mouse brain were lysed in ice-cold lysis buffer described above, and an aliquot corresponding to 50 μg of total protein was electrophoretically separated using 16.5% Tris-tricine gels. Electrophoresed proteins were then transferred to PVDF membranes (Bio-Rad), washed in dH2O, and blocked for 1 hour at ambient temperature in Tris-buffered saline (TBS; Bio-Rad) containing 5% (w/v) for non-fat dry milk. After blocking, membranes were hybridized for 1 hour at ambient temperature with various antibodies, including against the C- (369), N-terminus of APP (22C11), the N-terminus of Aβ (6E10), and ADAM10 and TACE (Calbiochem). Membranes were then washed 3× for 5 min each in dH2O and incubated for 1 hour at ambient temperature with the appropriate HRP-conjugated secondary antibody (1:1,000, Pierce Biotechnology, Inc. Rockford, Ill.). All antibodies were diluted in TBS containing 5% (w/v) of non-fat dry milk. Blots were developed using the luminal reagent (Pierce Biotechnology). Densitometric analysis was done using the Fluor-S Multimager™ with Quantity One™ software (Bio-Rad). Immunoprecipitation was performed for detection of sAPP-α, sAPP-β and Aβ by incubating 200 μg of total protein of each sample with 6E10 (1:100; Signet) or 22C11 (1:100; Roche, Basel, Switzerland) overnight with gentle rocking at 4° C., and 10 μL of 50% protein A-Sepharose beads were then added to the sample (1:10; Sigma) prior to gentle rocking for an additional 4 hours at 4° C. Following washes with 1× cell lysis buffer, samples were subjected to Western blot as described above. Antibodies used for Western blot included antibody 369 (1:1,000), anti-C-terminal APP antibody (1:500; Chemicon, Temecula, Calif.), BAM-10 (1:1,000; Sigma), 6E10 (1:1,000; Signet) or anti-Actin antibody (1:1,500; as an internal reference control; Roche). α-, β- and γ-secretase activities were quantified in cell lysates and mouse brain homogenates using available kits based on secretase-specific peptides conjugated to fluorogenic receptor molecules (R&D Systems, Minneapolis, Minn.).

Aβ1-40 and Aβ1-42 = assay: Aβ1-40/Aβ1-42 ELISA, conditioned media of SweAPP N2a cells (Examples 6-7, with or without siRNA knock-down); type: cell-based, murine; conditions: various doses of EGCG, 8 h
From the text: FIGS. 8A-8H show EGCG-induced ADAM10 activation correlates with APP α-secretase cleavage in vitro. […] Data were represented as % change relative to control (medium from cultured SweAPP N2a cells or primary neuronal cells without any treatment).
FIGS. 10A-10C show ADAM10 is required for EGCG-induced APP α-secretase cleavage. […] In FIG. 10A, cell lysates were subjected to WB for APP CTFs and ADAM10 cleavage analyses. […] In FIG. 10B, cell culture media were subjected to WB for sAPP-α secretion. […] In FIG. 10C, cell culture media were subjected to Aβ ELISA. Data are represented as % change relative to control (medium from cultured SweAPP N2a cells without any treatment). […]
Conditioned media were collected and analyzed at a 1:1 dilution using the method as previously described (Tan et al., 2002) and values were reported as percentage of Aβ1-x secreted relative to control. Quantitation of total Aβ species was performed according to published methods (Marambaud, P. et al., 2005). […] The optical density of each well was immediately determined by a microplate reader at 450 nm. In addition, Aβ1-40, or Aβ1-42 was separately quantified in these samples using the Aβ1-40 Aβ1-42 ELISA kits (IBL-America, Minneapolis, Minn.) in accordance with the manufacturer's instructions. In all cases, Aβ levels were expressed as a percentage of control (conditioned medium from untreated SWeAPP N2a cells). […]

## O=C(O[C@@H]1Cc2c(O)cc(O)cc2O[C@@H]1c1cc(O)c(O)c(O)c1)c1cc(O)c(O)c(O)c1 [EGCG, (−)-epigallocatechin-3-gallate]
APP cleavage processing; 20 μM for 18 hours
  secreted form of APP-α (sAPP-α) in cell cultured medium: markedly increased
APP cleavage processing; EGCG treated cells
  total APP and holo APP expression: not any changes
APP cleavage processing; in 3 to 4 hours and then through to 8 hours after EGCG treatment
  α-CTF generation, time course: drastically increased
Aβ1-40 and Aβ1-42
  Aβ1-40 concentration: dose-dependent reductions
  Aβ1-42 concentration: dose-dependent reductions
